Data set [1] is described as follows: Microsomal stability assay, mouse. Conditions: 1 μM test compound, unit printed in b356 only. Format: in vitro ADME. As for the experimental part: (§1) The liver microsomal incubation mixture was composed of liver microsomes (with a concentration of 0.5 mg microsomal protein/ml), the test compound (1 μM), MgCl2 (3 mM), EDTA (1 mM) in potassium phosphate buffer (100 mM, pH 7.4). Control substrates used were Midazolam and Ketanserin. The reaction was initiated with the addition of an NADPH regeneration solution (1.3 mM NADPH) and maintained at 37° C. with shaking. At five sequential time points ranging from 0 to 45 min, aliquots of the mixture (50 μL) were removed and quenched with acetonitrile (100 μL) containing an internal standard control (imipramine) Samples were analyzed after vortexing and centrifugation by liquid chromatography-mass spectrometry (LC-MS/MS). The in vitro t1/2 was then calculated and clearance followed literature.

Data set [2] in a line: Microsomal stability assay, rat. Format: in vitro ADME. Conditions: 1 μM test compound, unit printed in b356 only. The protocol:
as §1

The subject of data set [3] is miR-16, miR-28, miR-182, miR-10a, miR-21, miR-155. The data set can be described thus: RT-qPCR of other micro-RNAs (selectivity). Format: cell-based, human. As to conditions: AGS and AsPC1 cell lines; normalized to U6. For orientation: Real-time PCR tracks product formation cycle by cycle.
Data set [4] deals with U251, LN229, AGS, AsPC1 cell lines. As to the kind of experiment: Cell viability IC50 dose-response curves. Conditions: majority of cell lines (U251, LN229, AGS, AsPC1); values not given. Format: cell-based, human. As for the experimental part:
IC50 dose-response curves were determined using the cell proliferation assay system. Briefly, 5,000 or 10,000 cells of each cell line were plated in 96-well microculture plates in replicates of either 4 or 6. When cells became adherent, either 5 or 10 sequentially decreasing doses of the small molecule miRNA inhibitor were diluted into new media and added to individual wells. After either 24 or 48 hours, of a tetrazolium salt such as MTS, MTT, or WST-8 was added to each well at the same time of day as treatment and incubated for either 2 or 3 h at 37° C. The OD, measuring at the appropriate wavelength for the dye, was read at on a microplate spectrophotometer.

Another data set deals with U251 brain cancer line. The data set can be described thus: Clonogenic assay. Conditions: dose-dependent, 1 μM up to 5 μM, two weeks. It counts as cell-based, human. The protocol: In vitro clonogenic assays were conducted with adherent lines seeded in 12-well plates, treated for two weeks, and stained with crystal violet.
The next data set concerns U251 cell line. As to the kind of experiment: Annexin V/PI apoptosis assay by flow cytometry, U251. It counts as cell-based, human. Conditions: 48 h. As for the experimental part:
(§2) In 6-well plates, 1×10^5 cells/mL were added into each well. After 24 h, sequential concentrations of DMSO and 4 based were administered and the plates were incubated for 48 h. The supernatant and adherent cells were collected and centrifugated. Each dose was done in triplicate, with each sample composing two wells. For apoptosis analysis, the supernatant was discarded after centrifugation and the pellet washed with PBS twice. Then, BD Annexin V-FITC/PI used to stain the cells for analysis via flow cytometry on the Gallios machine. For cell cycle analysis, after washing with PBS, cells were fixed with ethanol and incubated. They, were treated with RNase enzyme and analyzed.

The test system of the next data set is AGS gastric cell line. As to the kind of experiment: Annexin V/PI apoptosis assay by flow cytometry, AGS. Format: cell-based, human. As to conditions: up to 10 μM, 48 h. As for the experimental part: as §2
Background: A flow cytometer gives signals particle by particle.

The test system of data set [5] is U251 brain cancer cell line. As to the kind of experiment: Cell morphology. It counts as cell-based, human. Conditions: over the course of 48 h.
Data set [6] deals with PTEN. As to the kind of experiment: Western blot, PTEN expression. It counts as cell-based, human. The protocol: (§3) Proteins are collected from cultured cells and lysed with 10× Lysis Buffer (Cell Signaling) freshly supplemented with a complete protease inhibitor cocktail and phosphatase inhibitors (Sigma). Bradford assay is used to measure protein concentration. Proteins are separated by polyacrylamide gel (Bio-rad) electrophoresis and were transferred to a 0.2 μm nitrocellulose membrane (Bio-rad). Quantification of protein expression was conducted using the image analysis software ImageJ.
For orientation: In western blotting, separated proteins are transferred to a membrane and probed.

For data set [7], the system named is PTEN. The data set can be described thus: Proteomics (RPPA), PTEN expression. Conditions: U251. Also noted: dose or concentration left out as unconfirmed. It counts as cell-based, human. The protocol:
Proteomics analysis was conducted at the Reverse Phase Protein Array Core facility at MD Anderson Cancer Center. Briefly, controls and treated samples were analyzed in triplicate for 486 unique antibodies. The outputs were then normalized for protein loading and transformed to the linear value, and the normalized data was logy transformed (log2(x+1)) and sorted by FDR-adjusted p-values with a significance level of p<0.05. Differentially expressed proteins between groups were identified using the moderated t-test from LIMMA package. […] Analyses and graphical representations were carried out in R. When preparing the data for analysis, the loge fold change was calculated and adjusted p-value was used for analysis. Gene symbols were converted using the DAVID bioinformatics resource and the clusterProfiler data visualization and analysis package was used for pathway enrichment analysis. For pathway analysis, the Hallmark gene set and Gene Ontology was used for gene set and pathway enrichment.

A further data set deals with Drosha. The data set can be described thus: Western blot, Drosha expression. Format: cell-based, human. Conditions: AsPC1, AGS, U251, LN229. The protocol: as §3
The next data set deals with miR-10b. The data set can be described thus: qRT-PCR of miR-10b in cerebral organoids co-cultured with brain cancer cells. Format: cell-based, human. Conditions: 10 μM, 48 h. The text has this: For co-culturing with cerebral organoids, the brain cancer cell lines U251 and LN229 were transduced with an RFP lentiviral vector expressing mCherry and luciferase, and sorted twice via an Aria Influx Cell Sorter.
Human induced pluripotent stem cell (iPSC) derived cerebral organoids were obtained, courtesy of Dr. Sanjay Singh and Dr. Frederick Lang in the Department of Neurosurgery at MD Anderson Cancer Center. Organoids were maintained in a specialized neural based media on a shaker inside a 37° C. incubator. After maturation, organoids were moved to 24-well ultra-low attachment plates, and individually co-cultured with 5×10^5−1×10^6 cells from brain cancer cell lines for approximately 48-72 h, until RFP signal was clear on the surface of the organoid, indicating cell attachment. Organoids were then moved to 6 well plates and grouped into triplicates within the well. The treatment regimen of control, and 4 was started, at an analogous schedule to in vitro experiments. For fixation and embedding for in situ hybridization, the organoids were processed using 4% PFA and placed in OCT in −80° C. for sectioning.

Setting [8] is: mouse, liver microsomes, pH 7.4, mouse liver microsomes.
Where [9] appears, read: rat, liver microsomes, pH 7.4, rat liver microsomes.

For `Cc1ccc(F)c(NC(=O)Nc2ccc(-c3cccc4cn[nH]c34)cc2)c1` [Example 4, 1-(4-(1H-indazol-7-yl)phenyl)-3-(2-fluoro-5-methylphenyl)urea], the CLint was 58.9 mL/min/kg in [1] (mouse liver microsomes) and 41.1 mL/min/kg in data set [2] (rat liver microsomes). Further, the Half-life was determined as 1.55 h in data set [1] (mouse liver microsomes) and 1.01 h in data set [2] (rat liver microsomes). Moreover, the CLint scaled at 1 μM in [1] (setting [8]) was 58 mL/min/kg; in data set [2] (setting [9]), 41 mL/min/kg. The figures for the half-life at 1 μM in [1] (setting [8]) and in [2] (setting [9]) were 1.53 h and 1 h, respectively. Also, the “selectivity for miR-10b over other micro-RNAs” value in [3] is reported as “selectivity of compound 4 for miR-10b becomes apparent”. Besides, the “IC50 at 48 h compared with IC50 at 24 h” value in [4] is on record as “lower than the corresponding IC50 value at 24 h”. Also, the formation of colonies result with U251 brain cancer line is on record as “suppressed the formation of colonies”. Also, in the data set on U251 cell line (5 μM), the “increase in total apoptotic cells compared to control” value is given as “approximately 4.5 fold”. Also, in the data set with U251 cell line (10 μM), the “total apoptotic cells at 10 μM compared with 5 μM” value is reported as “approximately the same”. Besides, the apoptotic cells result in the data set with AGS gastric cell line was “gradual increase”. In addition, in data set [5], the “morphology of the cells” value was “significant change in the morphology”. The “PTEN expression (Western blot)” value in the data set with PTEN [6] (LN229 brain cancer cell line) and with PTEN [6] (U251 brain cancer cell line) was “upregulation of PTEN” in each case. Also, the “PTEN expression (proteomics)” value in the data set on PTEN [7] is recorded as “significantly upregulated”. Further, the “Drosha expression (Western blot)” value in the data set on Drosha is “little to no variation”. Further, the “miR-10b levels (qRT-PCR)” value in the data set on miR-10b (cerebral organoids co-cultured with LN229) and in the data set on miR-10b (cerebral organoids co-cultured with U251) was “Significant downregulation of miR-10b” throughout.

By CLint scaled is commonly meant the capacity of the preparation to metabolise the compound, expressed as a volume cleared per time. In general, half-life refers to how long it takes for the measured level to halve.

Values taken from patent US20230145868A1, “UREA INHIBITORS OF MICRO-RNA” (Board of Regents, The University of Texas System, priority 2020, published 2023).
